Experimental data from patent US6630120B1, “Agents to increase the uptake of pharmaceuticals and diagnostic substances into solid tumors” (priority 1999, dated 2003).
Read-outs that look alike come from different tables or passages of the source.

Tests used:
[1] = test system: implanted tumor and lung; assay: Retention of 14C-carboplatin in solid tumors and in lung; assay type: in vivo, rat; details: FIG. 8
Procedure: The carboplatin was administered two minutes into a five minute Cereport™ infusion.

[2] = test system: MAT B-III metastatic lung tumors; assay: Animal survival with MAT B-III metastatic lung tumors after carboplatin and Cereport; assay type: in vivo, rat; details: FIG. 13
Procedure: MAT B-III cells were introduced into the lungs of 12 female F-344 Fisher rats by intrajugular injections of either 1×10^5 or 1×10^6 cells in 200 μl suspensions. The cells and animals were maintained and handled as described in Example 1. At various times following the injections, the number of surface tumor colonies on the lungs was assessed. Tumors were visually counted by injecting India ink into the trachea of the animals.
Finally, the effects of the administration of carboplatin and Cereport™ on the survival of animals who had been subjected to the implantation of MAT B-III metastatic lung surface tumors was assessed. In this study, 1×10^6 MAT B-III cells as a 200 μl suspension were implanted by intrajugular injection in 54 male Fischer rats. Sixteen days later, indwelling cannulae were inserted in the previously implanted jugular vein. On days 16 and 23, the animals received a continuous infusion of 5 mg/kg of carboplatin over a 15 minute period. Immediately following the 15 minute carboplatin infusion, the animals received a 10 minute continuous infusion of either saline or Cereport (1.5 μg/kg). The survival rates for the animals were then monitored.

[3] = test system: MAT B (III) rat mammary adenocarcinoma tumor implanted in the flank
Procedure: A series of studies were carried out on rat hosts in which suspended tumor cells had been subcutaneously implanted in the flank of the animal to create a solid tumor in situ. The effects of the administration of Cereport™ on the incorporation of ^14C-carboplatin into the tumor were evaluated.
Male Fischer rats (170-220 g; Taconic Farms, Germantown, N.Y.) were used in these studies. Animals were housed in pairs in polypropylene cages with free access to food and water. The vivarium was maintained on a 12 h light: 12 h dark cycle with a room temperature of 22±1° C. and relative humidity level of 50±5%.
The MAT B (III) cell line (ATCC CRL-1666), a rat ascites mammary adenocarcinoma, was used to produce peripheral tumors upon implantation in rats. Cells were grown and maintained at 37° C. in a 95% air/5% CO2 humidified atmosphere using McCoy's medium 5A (GIBCO) supplemented with 20 mM HEPES, 1/2X Antibody-Antimycotic, and 10% heat-inactivated Fetal Bovine Serum.
Immediately prior to implantation, MAT B-III cells were suspended in 1.2% methyl cellulose at a density of 5×10^6/ml. 200 μl of this suspension (1×10^6 cells) was injected subcutaneously into the flank of each animal using a 22G needle.
One week after tumor implantation, and under urethane anesthesia (1.8 g/kg; i.p.), cannulae (PE50, Clay Adams, Bectin Dickinson, Sparks, Md.) were placed in the jugular vein for drug administration and both femoral arteries for the measurement of physiological parameters.
Cereport™ (RMP-7, Alkermes, Inc., Cambridge, Mass.) and ^14C-carboplatin or -dextran (SA=144 μCi/mg and 1.08 μCi/mg respectively) were dissolved in sterile 0.9% saline and infused intravenously using a syringe pump at a rate of 0.05 ml/min over the entire administration period. Using the human clinical protocol as a basis, ^14C-carboplatin or dextran (100 μCi/kg) was infused for 15 minutes followed immediately by a 10 minute infusion of Cereport™. Throughout the experiment, body temperature was maintained normothermic (37.0±1.0° C.) and arterial blood gases, pH, and blood pressure were monitored. Animals with physiological values outside the normal ranges were not used.
At the end of the drug administration protocol, rats were sacrificed and the peripheral tumor was rapidly removed. A 1-2 mm thick slice was cut from the center of tumor. The slice was then divided into two equal parts comprising the center of the dissected piece (inner tumor) and the outside edge (outer tumor). Each tumor sample was weighed and placed into a scintillation vial and the amount of radioactivity (nCi/g) was computed for each region using scintillation counts as a measure of the radioactivity.

[4] = test system: MAT B-III tumor in rear flank or mammary fat pads; details: FIG. 5; female Fischer rats; 15 min carboplatin then 10 min Cereport 1.0 μg/kg
Procedure: MAT B-III cells (1×10^6) were implanted in two anatomically distinct sites in female Fischer rats. The tumor cells were implanted into either the subcutaneous space of the rear flank or orthotopically into mammary fat pads. Seven days later, the animals received a 15 minute i.v. infusion of ^14C-Carboplatin (100 μCi/kg) followed immediately by a 10 minute infusion of either saline or Cereport™ at 1.0 μg/kg. Following the saline or Cereport™ infusion, the tumor was rapidly removed and dissected into inner and outer regions. The amount of radioactivity of each tumor region was determined by scintillation counts.

[5] = test system: MAT B-III tumor implanted into the liver; details: FIG. 6
Procedure: MAT B-III cells (1×10^6) were implanted directly into the liver of male Fischer rats using a 25G needle and 1 ml tuberculin syringe. Fourteen days later, the animals received a 15 minute i.v. infusion of ^14C-carboplatin (100 μCi/kg) followed immediately by a 10 minute infusion of either saline or Cereport™ at 1.0 μg/kg. Following the saline or Cereport™ infusion, the liver was rapidly removed. The tumor was dissected free of the surrounding liver tissue and divided into inner and outer regions. A 1 mm strip of liver that immediately surrounded the tumor (inner ring) and the adjacent 1 mm strip of liver (outer ring) were also removed and assayed. In addition, an equivalent strip of liver from the untreated lobe, was removed and assayed. This liver strip served as a control.

[6] = test system: implanted tumor and various organs; details: FIG. 7; Cereport 1 μg/kg; carboplatin bolus two minutes into five minute Cereport infusion
Procedure: The carboplatin was administered as a bolus two minutes into a five minute Cereport™ infusion.

[7] = test system: Walker 256 tumor; details: FIG. 9; male Wistar rats; 15 min carboplatin then 10 min Cereport 1.0 μg/kg
Procedure: Walker 256 cells (ATCC CCL-38) (1×10^7) were implanted into the subcutaneous space of the rear flank of male Wistar rats to create a solid tumor in situ in the same manner as previously described for the MAT B-III cells. Eight days later, the animals received a 15 minute i.v. infusion of ^14C-carboplatin (100 μCi/kg) followed immediately by a 10 minute infusion of either saline or Cereport™ at 1.0 μg/kg. Following the saline or Cereport™ infusion, the tumor was rapidly removed and dissected into inner and outer regions. The amount of radioactivity of each tumor region was determined by scintillation counts.

[8] = test system: implanted tumor; details: FIG. 10
Procedure: In some instances, Cereport™ is administered in addition to carboplatin. The carboplatin was infused for 15-minutes followed immediately by a 10 minute infusion of Cereport™ at 1.5 μg/kg.

[9] = test system: implanted tumor; details: FIG. 14; Cereport infusion for 10 minutes at 1 μg/kg
Source text: Interstitial fluid pressure is a severe impediment for administered substances into tumor interstitial spaces from the bloodstream.

[10] = biological target: angiotensin converting enzyme (ACE) (Homo sapiens, UniProt P12821); details: general statement, no method given; cited from earlier work
[11] = eighth day, carboplatin plus Cereport 1.5 μg/kg

Chain of angiotensin converting enzyme (ACE) (P12821 30-1306, species assumed): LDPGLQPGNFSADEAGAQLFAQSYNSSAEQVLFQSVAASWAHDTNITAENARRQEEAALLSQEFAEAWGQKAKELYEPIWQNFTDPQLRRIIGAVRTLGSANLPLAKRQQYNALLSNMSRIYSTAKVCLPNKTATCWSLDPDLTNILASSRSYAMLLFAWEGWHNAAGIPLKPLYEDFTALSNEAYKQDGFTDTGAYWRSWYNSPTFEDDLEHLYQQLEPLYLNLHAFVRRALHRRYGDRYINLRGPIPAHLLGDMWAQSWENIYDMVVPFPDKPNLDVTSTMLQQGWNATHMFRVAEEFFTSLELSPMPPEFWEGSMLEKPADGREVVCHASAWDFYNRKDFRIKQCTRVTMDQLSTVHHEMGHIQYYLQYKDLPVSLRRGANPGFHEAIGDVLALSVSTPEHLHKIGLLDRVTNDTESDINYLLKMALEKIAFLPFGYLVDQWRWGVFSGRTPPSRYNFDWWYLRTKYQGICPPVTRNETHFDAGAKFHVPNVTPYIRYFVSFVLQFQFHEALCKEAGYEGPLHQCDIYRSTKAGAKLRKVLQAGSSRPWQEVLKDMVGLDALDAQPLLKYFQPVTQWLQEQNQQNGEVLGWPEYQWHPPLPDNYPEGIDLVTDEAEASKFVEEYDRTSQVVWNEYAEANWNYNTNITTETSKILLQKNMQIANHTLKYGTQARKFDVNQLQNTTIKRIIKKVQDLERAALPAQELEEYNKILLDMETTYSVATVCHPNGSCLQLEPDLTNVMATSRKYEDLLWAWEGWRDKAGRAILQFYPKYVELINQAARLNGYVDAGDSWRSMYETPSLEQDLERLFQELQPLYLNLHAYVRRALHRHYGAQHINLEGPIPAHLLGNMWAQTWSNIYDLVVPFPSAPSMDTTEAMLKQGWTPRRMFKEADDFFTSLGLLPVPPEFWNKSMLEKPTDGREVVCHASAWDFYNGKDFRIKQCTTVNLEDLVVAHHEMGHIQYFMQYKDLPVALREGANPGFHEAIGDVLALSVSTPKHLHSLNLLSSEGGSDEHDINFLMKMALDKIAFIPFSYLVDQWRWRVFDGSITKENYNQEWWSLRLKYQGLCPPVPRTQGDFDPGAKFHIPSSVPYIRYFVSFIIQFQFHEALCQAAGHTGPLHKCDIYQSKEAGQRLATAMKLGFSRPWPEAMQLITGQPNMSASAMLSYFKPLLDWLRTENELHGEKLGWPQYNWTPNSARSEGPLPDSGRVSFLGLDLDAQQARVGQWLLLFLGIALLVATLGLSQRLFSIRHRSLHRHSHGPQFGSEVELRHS

N.N.O=C([O-])C1(C(=O)[O-])CCC1.[Pt+2] [carboplatin]
retention of carboplatin in tumor tissue ([1]; after Cereport administration, carboplatin two minutes into five minute Cereport infusion): at least 90 minutes
retention of carboplatin in lung ([1]; after the initial uptake following Cereport administration): not retained
prolongation of survival versus no carboplatin ([2]; carboplatin 5 mg/kg by itself (followed by saline) on days 16 and 23): approximately 10 days

arginine-proline-hydroxyproline-glycine-thienylalanine-serine-proline-4-Me-tyrosineψ(CH2NH)arginine [Cereport™]
carboplatin uptake into inner tumor and outer tumor ([3]; FIG. 1, carboplatin bolus two minutes into a ten minute Cereport infusion, three Cereport infusion amounts, vs no Cereport): significantly taken up
carboplatin uptake into inner tumor and outer tumor ([3]; FIG. 2, carboplatin bolus two minutes into a five minute Cereport infusion, Cereport 0.5 μg/kg): not significantly taken up
carboplatin uptake into inner tumor and outer tumor ([3]; FIG. 2, carboplatin bolus two minutes into a five minute Cereport infusion, Cereport 0.75 μg/kg): significantly taken up
carboplatin uptake into inner tumor and outer tumor ([3]; FIG. 2, carboplatin bolus two minutes into a five minute Cereport infusion, Cereport 1.0 μg/kg): significantly taken up
carboplatin uptake into inner tumor and outer tumor ([3]; FIG. 2, carboplatin bolus two minutes into a five minute Cereport infusion, Cereport 1.75 μg/kg): significantly taken up
carboplatin uptake into inner tumor and outer tumor ([3]; FIG. 2, carboplatin bolus two minutes into a five minute Cereport infusion, Cereport 2.5 μg/kg): significantly taken up
carboplatin uptake into inner tumor and outer tumor ([3]; FIG. 2, carboplatin bolus two minutes into a five minute Cereport infusion, Cereport 5.0 μg/kg): not significantly taken up
carboplatin uptake into inner tumor and outer tumor ([3]; FIG. 3, carboplatin infused 15 minutes prior to Cereport, Cereport 0.36 μg/kg): possible exception
carboplatin uptake into inner tumor and outer tumor ([3]; FIG. 3, carboplatin infused 15 minutes prior to Cereport, all Cereport doses other than 0.36 μg/kg): significantly taken up
dextran (MW 70 kDa) uptake into inner tumor and outer tumor ([3]; FIG. 4, dextran infused 15 minutes prior to Cereport, three Cereport infusion amounts, vs no Cereport): significantly taken up
carboplatin uptake into implanted tumor located in the flank [4]: significantly taken up
carboplatin uptake into implanted tumor located in the mammary pad [4]: significantly taken up
carboplatin uptake into tumor implanted in the liver ([5]; 15 min carboplatin then 10 min Cereport 1.0 μg/kg): significantly taken up
carboplatin uptake into liver tissue adjacent to the tumor ([5]; inner and outer ring liver strips, Cereport 1.0 μg/kg): does not have a significant effect
carboplatin uptake into control strip of liver ([5]; strip from untreated lobe, Cereport 1.0 μg/kg): does not have a significant effect
carboplatin uptake in tumor tissue compared with heart, lung and liver [6]: far surpasses
carboplatin uptake into heart, lung and liver [6]: some uptake
carboplatin uptake into inner and outer region of Walker 256 tumor [7]: significantly taken up
regression of the implanted tumor in comparison to carboplatin alone ([8]; 15 min carboplatin then 10 min Cereport 1.5 μg/kg): markedly cause regression
tumor size relative to size if Cereport had not been administered with the carboplatin [8, 11]: approximately one half
tumor size relative to size if no carboplatin had been administered [8, 11]: approximately one third
additional extension of survival profile beyond carboplatin alone ([2]; carboplatin 5 mg/kg followed by Cereport 1.5 μg/kg on days 16 and 23): approximately 10 days
decrease of interstitial fluid pressure in implanted tumors [9]: up to 40%
degradation by angiotensin converting enzyme (ACE) [10]: not significantly degraded
